Measured values published in US10118916B2, “Modulators of cystic fibrosis transmembrane conductance regulator protein” (AbbVie S.à.r.l., priority 2016, dated 2018).

Target: T1, F508delCFTR (Homo sapiens, UniProt P13569, DEL508-508)
T1 construct: expressed in transfected cells; host or cells: CFBE41o- (human lung derived epithelial cell line), doxycycline-inducible
Experiment: Cell Surface Expression-Horse Radish Peroxidase (CSE-HRP) assay
Type: cell-based
Conditions: CFBE41o-F508delCFTR-HRP cells; for EC50: F508delCFTR cell surface expression, luminescence, 18-24 hours at 33° C., highest concentration 20 μM; for Maximum % activity: maximum at any tested concentration, normalized to on-plate positive control (3 μM)
From the text: Cell Surface Expression-Horse Radish Peroxidase (CSE-HRP) Assay:
A cellular assay for measuring the F508delCFTR cell surface expression after correction with test compounds was developed in human lung derived epithelial cell line (CFBE41o-) (Veit G et al, (2012) Mol Biol Cell. 23(21): 4188-4202). This was achieved by expressing the F508delCFTR mutation along with a horseradish peroxidase (HRP) in the fourth exofacial loop and then measuring the HRP activity using luminescence readout from these cells, CFBE41o-F508delCFTR-HRP, that were incubated overnight with the test corrector compounds. Briefly, for this primary assay, the CFBE41o-F508delCFTR-HRP cells were plated in 384-well plates (Greiner Bio-one; Cat 781080) at 4,000 cells/well along with 0.5 μg/mL doxycycline to induce the F508delCFTR-HRP expression and further incubated at 37° C., 5% CO2 for 72 hours. The test compounds were then added at the required concentrations and further incubated for 18-24 hours at 33° C. The highest concentration tested was 20 μM with an 8-point concentration response curve using a 3-fold dilution. Three replicate plates were run to determine one EC50. All plates contained negative controls (dimethyl sulfoxide, DMSO) and positive controls (3 μM of 3-[(2R,4R)-4-({[1-(2,2-difluoro-1,3-benzodioxol-5-yl)cyclopropyl]carbonyl}amino)-7-methoxy-3,4-dihydro-2H-chromen-2-yl]benzoic acid) as well as on-plate concentration response of the positive control. Post incubation, the plates were washed 5× times with Dulbecco's phosphate buffered saline (DPBS), followed by the addition of the HRP substrate, luminol (50 μL), and measuring the HRP activity using luminescence readout on EnVision® Multilabel Plate Reader (Perkin Elmer; product number 2104-0010). The raw counts from the experiment are analyzed using Accelrys® Assay Explorer v3.3.
Z′ greater than 0.5 was used as passing quality control criteria for the plates.
The Z′ is defined as: 1−[3*SDPositive Control+3*SDNegative Control/Absolute(MeanPositive Control−MeanNegative Control)] wherein “SD” is standard deviation.
The % activity measured at each of the 8 test concentrations of the test compound was normalized to the on-plate positive control using the following formula: % activity=[(test compound response−DMSO response)/(positive control response−DMSO response)]*100
The maximum % activity achieved for the test compound at any tested concentration is presented in Table 1 along with the EC50 calculated using the following general sigmoidal curve with variable Hill slope equation (described as Model 42 in the Accelrys® Assay Explorer v3.3 software): y=(a−d)/(1+(x/c)^b)+d
General sigmoidal curve with concentration, response, top, bottom, EC50 and Hill slope.
This model describes a sigmoidal curve with an adjustable baseline, a. The equation can be used to fit curves where response is either increasing or decreasing with respect to the independent variable, “x”. • “x” is a concentration of drug under test. • “y” is the response. • “a” is the maximum response, and “d” is the minimum response • “c” is the inflection point (EC50) for the curve. That is, “y” is halfway between the lower and upper asymptotes when x=c. • “b” is the slope-factor or Hill coefficient. The sign of b is positive when the response increases with increasing dose and is negative when the response decreases with increasing dose (inhibition).

T1 sequence (P13569 with tags, fused parts or gaps DEL508-508): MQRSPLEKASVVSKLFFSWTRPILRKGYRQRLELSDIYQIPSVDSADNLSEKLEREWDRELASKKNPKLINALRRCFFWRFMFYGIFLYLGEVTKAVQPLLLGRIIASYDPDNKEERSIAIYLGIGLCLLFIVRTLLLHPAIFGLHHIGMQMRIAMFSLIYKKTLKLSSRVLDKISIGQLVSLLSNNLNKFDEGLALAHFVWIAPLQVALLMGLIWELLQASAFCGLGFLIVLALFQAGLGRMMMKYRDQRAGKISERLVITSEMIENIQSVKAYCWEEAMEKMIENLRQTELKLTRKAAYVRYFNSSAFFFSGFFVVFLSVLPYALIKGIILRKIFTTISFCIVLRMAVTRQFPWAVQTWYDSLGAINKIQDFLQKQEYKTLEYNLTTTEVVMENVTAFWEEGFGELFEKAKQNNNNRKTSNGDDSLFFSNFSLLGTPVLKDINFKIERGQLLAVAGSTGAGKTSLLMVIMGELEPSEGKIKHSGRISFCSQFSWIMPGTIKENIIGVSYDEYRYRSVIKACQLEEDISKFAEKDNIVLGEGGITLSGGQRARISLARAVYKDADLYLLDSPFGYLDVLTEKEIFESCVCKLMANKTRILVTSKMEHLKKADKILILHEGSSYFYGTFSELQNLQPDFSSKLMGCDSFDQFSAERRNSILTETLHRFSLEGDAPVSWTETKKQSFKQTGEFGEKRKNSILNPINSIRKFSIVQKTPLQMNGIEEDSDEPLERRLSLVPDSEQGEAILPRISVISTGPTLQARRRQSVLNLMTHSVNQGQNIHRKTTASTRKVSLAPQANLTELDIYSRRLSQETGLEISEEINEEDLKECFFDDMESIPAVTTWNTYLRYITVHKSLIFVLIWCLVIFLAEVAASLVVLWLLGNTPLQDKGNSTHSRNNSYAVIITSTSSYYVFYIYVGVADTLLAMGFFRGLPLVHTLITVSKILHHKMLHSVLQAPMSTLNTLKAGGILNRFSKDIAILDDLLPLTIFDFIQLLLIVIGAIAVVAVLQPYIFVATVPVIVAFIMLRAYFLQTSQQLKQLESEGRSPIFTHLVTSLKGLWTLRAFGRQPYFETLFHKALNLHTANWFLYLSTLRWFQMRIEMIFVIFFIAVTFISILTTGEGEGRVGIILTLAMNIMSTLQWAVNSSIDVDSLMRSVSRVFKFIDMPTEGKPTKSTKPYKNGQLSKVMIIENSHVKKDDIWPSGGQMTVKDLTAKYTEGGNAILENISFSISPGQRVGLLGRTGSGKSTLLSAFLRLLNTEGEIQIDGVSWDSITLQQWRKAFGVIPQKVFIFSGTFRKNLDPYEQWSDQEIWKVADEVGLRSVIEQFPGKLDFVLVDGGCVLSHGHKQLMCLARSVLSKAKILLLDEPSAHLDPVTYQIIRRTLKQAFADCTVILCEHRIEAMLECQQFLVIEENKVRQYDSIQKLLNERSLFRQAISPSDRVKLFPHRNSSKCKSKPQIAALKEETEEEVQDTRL

Compound: COc1ccc2c(c1)OC(c1ccc(OC)c(OC)c1)CC2NC(=O)C1(c2ccc(F)cc2)CC1 (centres unmarked) [Example 20, N-[2-(3,4-dimethoxyphenyl)-7-methoxy-3,4-dihydro-2H-1-benzopyran-4-yl]-1-(4-fluorophenyl)cyclopropane-1-carb oxamide]
- EC50: 890 nM
- Maximum % activity: 51.1%

Compound: COc1ccc2c(c1)OC(c1ccc(OC)c(OC)c1)CC2NC(=O)C1(c2ccc(Cl)cc2)CC1 (centres unmarked) [Example 21, 1-(4-chlorophenyl)-N-[2-(3,4-dimethoxyphenyl)-7-methoxy-3,4-dihydro-2H-1-benzopyran-4-yl]cyclopropane-1-carboxamide]
- EC50: 1140 nM
- Maximum % activity: 77.8%

Compound: COc1ccc2c(c1)OC(c1ccc(OC)c(OC)c1)CC2NC(=O)C(C)(C)c1ccc(Cl)cc1 (centres unmarked) [Example 22, 2-(4-chlorophenyl)-N-[2-(3,4-dimethoxyphenyl)-7-methoxy-3,4-dihydro-2H-1-benzopyran-4-yl]-2-methylpropanamide]
- EC50: 990 nM
- Maximum % activity: 56.6%

Compound: COc1ccc(C(C)(C)C(=O)NC2CC(c3ccc(OC)c(OC)c3)Oc3cc(OC)ccc32)cc1 (centres unmarked) [Example 23, N-[2-(3,4-dimethoxyphenyl)-7-methoxy-3,4-dihydro-2H-1-benzopyran-4-yl]-2-(4-methoxyphenyl)-2-methylpropanamide]
- EC50: 230 nM
- Maximum % activity: 54.0%

Compound: COc1ccc(C(C)(C)C(=O)N[C@H]2C[C@H](c3cccc(C(=O)O)c3)Oc3cc(OC)ccc32)cc1 [Example 24, 3-{(2R,4S)-7-methoxy-4-[2-(4-methoxyphenyl)-2-methylpropanamido]-3,4-dihydro-2H-1-benzopyran-2-yl}benzoic acid]
- EC50: 1160 nM
- Maximum % activity: 38.3%

Compound: COc1ccc(C(C)(C)C(=O)N[C@@H]2C[C@H](c3cccc(C(=O)O)c3)Oc3cc(OC)ccc32)cc1 [Example 25, 3-{(2R,4R)-7-methoxy-4-[2-(4-methoxyphenyl)-2-methylpropanamido]-3,4-dihydro-2H-1-benzopyran-2-yl}benzoic acid]
- EC50: 230 nM
- Maximum % activity: 39.5%

Compound: C[C@]1(C(=O)N[C@@H]2C[C@H](c3cccc(C(=O)O)c3)Oc3ccccc32)Cc2cc(Cl)ccc2O1 [Example 26, 3-[(2R,4R)-4-{[(2R)-5-chloro-2-methyl-2,3-dihydro-1-benzofuran-2-carbonyl]amino}-3,4-dihydro-2H-1-benzopyran-2-yl]benzoic acid]
- EC50: > 20000 nM
- Maximum % activity: 1.6%

Compound: C[C@@]1(C(=O)N[C@@H]2C[C@H](c3cccc(C(=O)O)c3)Oc3ccccc32)Cc2cc(Cl)ccc2O1 [Example 27, 3-[(2R,4R)-4-{[(2S)-5-chloro-2-methyl-2,3-dihydro-1-benzofuran-2-carbonyl]amino}-3,4-dihydro-2H-1-benzopyran-2-yl]benzoic acid]
- EC50: > 20000 nM
- Maximum % activity: 7.9%

Compound: COC(=O)c1cccc([C@H]2C[C@@H](NC(=O)[C@]3(C)CCc4cc(OC)ccc43)c3ccccc3O2)c1 [Example 28, methyl 3-[(2R,4R)-4-{[(1R)-5-methoxy-1-methyl-2,3-dihydro-1H-indene-1-carbonyl]amino}-3,4-dihydro-2H-1-benzopyran-2-yl]benzoate]
- EC50: 2490 nM
- Maximum % activity: 21.2%

Compound: COC(=O)c1cccc([C@H]2C[C@@H](NC(=O)[C@]3(C)CCc4cc(OC)ccc43)c3ccc(OC)cc3O2)c1 [Example 29, methyl 3-[(2R,4R)-7-methoxy-4-{[(1R)-5-methoxy-1-methyl-2,3-dihydro-1H-indene-1-carbonyl]amino}-3,4-dihydro-2H-1-benzopyran-2-yl]benzoate]
- EC50: 1440 nM
- Maximum % activity: 37.8%

Compound: COC(=O)c1cccc([C@H]2C[C@@H](NC(=O)[C@@]3(C)CCc4cc(OC)ccc43)c3ccccc3O2)c1 [Example 30, methyl 3-[(2R,4R)-4-{[(1S)-5-methoxy-1-methyl-2,3-dihydro-1H-indene-1-carbonyl]amino}-3,4-dihydro-2H-1-benzopyran-2-yl]benzoate]
- EC50: 960 nM
- Maximum % activity: 48.4%

Compound: COC(=O)c1cccc([C@H]2C[C@@H](NC(=O)[C@@]3(C)CCc4cc(OC)ccc43)c3ccc(OC)cc3O2)c1 [Example 31, methyl 3-[(2R,4R)-7-methoxy-4-{[(1S)-5-methoxy-1-methyl-2,3-dihydro-1H-indene-1-carbonyl]amino}-3,4-dihydro-2H-1-benzopyran-2-yl]benzoate]
- EC50: 400 nM
- Maximum % activity: 63.6%

Compound: COc1ccc2c(c1)CC[C@@]2(C)C(=O)N[C@@H]1C[C@H](c2cccc(C(=O)O)c2)Oc2ccccc21 [Example 32, 3-[(2R,4R)-4-{[(1R)-5-methoxy-1-methyl-2,3-dihydro-1H-indene-1-carbonyl]amino}-3,4-dihydro-2H-1-benzopyran-2-yl]benzoic acid]
- EC50: 1210 nM
- Maximum % activity: 20.4%

Compound: COc1ccc2c(c1)CC[C@@]2(C)C(=O)N[C@@H]1C[C@H](c2cccc(C(=O)O)c2)Oc2cc(OC)ccc21 [Example 33, 3-[(2R,4R)-7-methoxy-4-{[(1R)-5-methoxy-1-methyl-2,3-dihydro-1H-indene-1-carbonyl]amino}-3,4-dihydro-2H-1-benzopyran-2-yl]benzoic acid]
- EC50: 270 nM
- Maximum % activity: 25.9%

Compound: COc1ccc2c(c1)CC[C@]2(C)C(=O)N[C@@H]1C[C@H](c2cccc(C(=O)O)c2)Oc2ccccc21 [Example 34, 3-[(2R,4R)-4-{[(1S)-5-methoxy-1-methyl-2,3-dihydro-1H-indene-1-carbonyl]amino}-3,4-dihydro-2H-1-benzopyran-2-yl]benzoic acid]
- EC50: 410 nM
- Maximum % activity: 52.6%

Compound: COc1ccc2c(c1)CC[C@]2(C)C(=O)N[C@@H]1C[C@H](c2cccc(C(=O)O)c2)Oc2cc(OC)ccc21 [Example 35, 3-[(2R,4R)-7-methoxy-4-{[(1S)-5-methoxy-1-methyl-2,3-dihydro-1H-indene-1-carbonyl]amino}-3,4-dihydro-2H-1-benzopyran-2-yl]benzoic acid]
- EC50: 200 nM
- Maximum % activity: 57.5%

Compound: COc1ccc2c(c1)O[C@@H](c1cccc(C(=O)O)c1)C[C@H]2NC(=O)C1(C)CCc2cc(Cl)ccc21 (stereo partly drawn) [Example 36, 3-{(2R,4R)-4-[(5-chloro-1-methyl-2,3-dihydro-1H-indene-1-carbonyl)amino]-7-methoxy-3,4-dihydro-2H-1-benzopyran-2-yl}benzoic acid]
- EC50: 670 nM
- Maximum % activity: 31.4%

Compound: COc1ccc2c(c1)O[C@@H](c1cccc(C(=O)O)c1)C[C@H]2NC(=O)C(C)(C)c1ccc(OCC(C)C)cc1 [Example 37, 3-[(2R,4R)-7-methoxy-4-{2-methyl-2-[4-(2-methylpropoxy)phenyl]propanamido}-3,4-dihydro-2H-1-benzopyran-2-yl]benzoic acid]
- EC50: > 20000 nM
- Maximum % activity: 6.1%

Compound: COc1ccc2c(c1)O[C@@H](c1cccc(C(=O)O)c1)C[C@H]2NC(=O)C(C)(C)c1ccc2c(c1)OCCO2 [Example 39, 3-{(2R,4R)-4-[2-(2,3-dihydro-1,4-benzodioxin-6-yl)-2-methylpropanamido]-7-methoxy-3,4-dihydro-2H-1-benzopyran-2-yl}benzoic acid]
- EC50: 870 nM
- Maximum % activity: 41.7%
